Experiments:
RON (human) = RON (human) (Homo sapiens, UniProt Q04912); assay: RON (human) AlphaScreen kinase assay, Km of ATP; format: biochemical; details: AlphaScreen, Km of ATP; read-out: RON biochemical IC50
Method in brief: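 Detection used PT66 AlphaScreen beads added in Tris pH 7.5/NaCl/EDTA/BSA buffer, read after 1 h incubation. Vehicle-only DMSO wells served as controls.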

MET (human) = MET (human) (Homo sapiens, UniProt P08581); assay: MET (human) AlphaScreen kinase assay, Km of ATP; format: biochemical; details: AlphaScreen, Km of ATP; read-out: Met biochemical IC50
MET (human), sequence (P08581 25-1390): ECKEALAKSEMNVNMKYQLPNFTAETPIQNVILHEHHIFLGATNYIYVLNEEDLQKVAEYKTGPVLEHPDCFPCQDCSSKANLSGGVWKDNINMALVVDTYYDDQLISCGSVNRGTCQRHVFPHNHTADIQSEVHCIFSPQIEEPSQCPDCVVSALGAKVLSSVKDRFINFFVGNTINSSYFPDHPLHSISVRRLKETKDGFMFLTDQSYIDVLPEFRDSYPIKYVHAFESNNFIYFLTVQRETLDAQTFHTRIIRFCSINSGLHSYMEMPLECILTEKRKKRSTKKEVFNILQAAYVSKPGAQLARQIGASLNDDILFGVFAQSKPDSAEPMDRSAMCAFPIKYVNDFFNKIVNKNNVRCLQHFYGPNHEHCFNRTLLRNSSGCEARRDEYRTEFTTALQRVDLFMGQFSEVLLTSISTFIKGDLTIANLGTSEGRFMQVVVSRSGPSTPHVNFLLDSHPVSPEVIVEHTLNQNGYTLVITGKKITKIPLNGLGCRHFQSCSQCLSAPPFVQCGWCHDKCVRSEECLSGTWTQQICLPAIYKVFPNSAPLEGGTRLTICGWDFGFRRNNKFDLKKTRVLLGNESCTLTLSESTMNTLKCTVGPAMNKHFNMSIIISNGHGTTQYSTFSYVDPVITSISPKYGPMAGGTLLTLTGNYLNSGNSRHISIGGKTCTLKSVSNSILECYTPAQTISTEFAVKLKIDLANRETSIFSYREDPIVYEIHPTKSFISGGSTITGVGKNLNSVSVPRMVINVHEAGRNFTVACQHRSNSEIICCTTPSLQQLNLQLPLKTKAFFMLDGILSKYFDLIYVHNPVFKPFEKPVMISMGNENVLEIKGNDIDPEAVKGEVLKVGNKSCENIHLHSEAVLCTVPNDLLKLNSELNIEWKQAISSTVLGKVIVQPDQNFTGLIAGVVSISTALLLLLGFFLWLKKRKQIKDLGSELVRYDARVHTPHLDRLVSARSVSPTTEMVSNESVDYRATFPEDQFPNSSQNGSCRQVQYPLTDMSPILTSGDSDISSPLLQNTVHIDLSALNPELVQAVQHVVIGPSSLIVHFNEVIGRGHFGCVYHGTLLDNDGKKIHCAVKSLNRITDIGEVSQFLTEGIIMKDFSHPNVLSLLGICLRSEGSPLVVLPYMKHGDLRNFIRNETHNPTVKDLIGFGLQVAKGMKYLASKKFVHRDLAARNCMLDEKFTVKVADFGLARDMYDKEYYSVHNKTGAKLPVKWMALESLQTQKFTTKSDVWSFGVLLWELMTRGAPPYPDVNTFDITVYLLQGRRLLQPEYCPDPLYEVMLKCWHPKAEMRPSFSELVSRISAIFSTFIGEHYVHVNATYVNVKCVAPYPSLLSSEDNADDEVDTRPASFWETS
Experimental: Someone skilled in the art will appreciate that a variety of assay formats may be used to determine the activity of the compounds of this invention. For example, AlphaScreen (Amplified Luminescent Proximity Homogeneous Assay) technology was used with the kinases described below. Assay ATP concentrations for individual kinases are included in the text.
Desired compound is added in a final concentration of 1% DMSO with control being vehicle of DMSO alone. MET is diluted to the optimized concentration (optimized on a lot-by-lot basis) in an enzyme diluent buffer (50 mM Tris pH=7.4, 1% glycerol, 0.03% Brij35, 0.24 mM EGTA, 1 mM DTT, and 0.003% BSA). Enzyme is added to initiate the reaction and incubated for 60 min at RT. In subdued light, appropriate amount of PT66 donor and acceptor beads (diluted 1:260 from manufacturer's provision in a 25 mM Tris HCl (pH=7.5), 400 mM NaCl, 100 mM EDTA, 0.3% BSA buffer) are added to the wells. The plates, incubated for 1 h, are read on an AlphaQuest plate reader

RON (human), sequence (Q04912 25-1400): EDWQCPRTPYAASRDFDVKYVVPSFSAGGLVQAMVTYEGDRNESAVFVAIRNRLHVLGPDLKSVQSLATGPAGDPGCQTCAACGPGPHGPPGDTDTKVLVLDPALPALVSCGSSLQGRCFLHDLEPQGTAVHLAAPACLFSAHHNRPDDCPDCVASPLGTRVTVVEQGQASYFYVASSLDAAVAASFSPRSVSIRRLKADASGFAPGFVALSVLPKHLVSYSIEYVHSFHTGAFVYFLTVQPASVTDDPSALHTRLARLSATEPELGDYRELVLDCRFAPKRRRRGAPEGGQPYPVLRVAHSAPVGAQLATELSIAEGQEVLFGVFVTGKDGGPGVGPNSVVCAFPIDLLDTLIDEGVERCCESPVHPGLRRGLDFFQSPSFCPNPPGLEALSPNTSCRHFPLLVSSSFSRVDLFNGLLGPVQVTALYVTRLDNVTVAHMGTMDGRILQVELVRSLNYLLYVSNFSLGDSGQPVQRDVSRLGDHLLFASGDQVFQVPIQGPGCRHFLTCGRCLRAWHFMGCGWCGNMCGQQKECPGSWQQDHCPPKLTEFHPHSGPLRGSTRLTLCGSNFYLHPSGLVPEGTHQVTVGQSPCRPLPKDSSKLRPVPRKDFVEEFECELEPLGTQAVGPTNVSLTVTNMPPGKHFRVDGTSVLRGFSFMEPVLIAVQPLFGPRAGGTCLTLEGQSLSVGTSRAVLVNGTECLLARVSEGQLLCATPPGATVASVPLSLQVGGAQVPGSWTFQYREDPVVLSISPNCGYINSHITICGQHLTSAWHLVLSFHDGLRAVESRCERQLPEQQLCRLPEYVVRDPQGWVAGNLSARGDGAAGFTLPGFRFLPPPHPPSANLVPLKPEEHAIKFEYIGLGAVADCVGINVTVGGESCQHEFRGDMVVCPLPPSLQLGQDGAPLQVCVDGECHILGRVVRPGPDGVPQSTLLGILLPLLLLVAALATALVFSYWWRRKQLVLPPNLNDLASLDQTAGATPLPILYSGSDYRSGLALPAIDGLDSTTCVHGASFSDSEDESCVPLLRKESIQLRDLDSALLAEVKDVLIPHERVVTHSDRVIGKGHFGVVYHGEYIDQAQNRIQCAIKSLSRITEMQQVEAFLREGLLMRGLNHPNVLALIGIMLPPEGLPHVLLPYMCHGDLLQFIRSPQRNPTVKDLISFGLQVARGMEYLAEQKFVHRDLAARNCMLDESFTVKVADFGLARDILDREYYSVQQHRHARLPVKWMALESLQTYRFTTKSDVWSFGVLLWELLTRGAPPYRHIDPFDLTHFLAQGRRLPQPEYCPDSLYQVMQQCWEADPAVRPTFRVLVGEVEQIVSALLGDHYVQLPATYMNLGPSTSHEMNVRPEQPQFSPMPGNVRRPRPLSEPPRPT

Structure (SMILES) | IC50 (RON (human)) [µM] | IC50 (MET (human)) [µM]
C[C@@H](Oc1c(N)ncc2c(C3=CCN(C(=O)Nc4ccccc4Cl)CC3)coc12)c1c(Cl)ccc(F)c1Cl [Example 152, 4-{6-Amino-7-[(1R)-1-(2,6-dichloro-3-fluorophenyl)ethoxy]furo[3,2-c]pyridin-3-yl}-N-(2-chlorophenyl)-3,6-dihydropyridine-1(2H)-carboxamide] | 0.5 to 5 | 0.5 to 5
C[C@@H](Oc1c(N)ncc2c(C3=CCN(CC4CCCCC4)CC3)coc12)c1c(Cl)ccc(F)c1Cl [Example 38, 3-(1-Cyclohexylmethyl-1,2,3,6-tetrahydropyridin-4-yl)-7-[(R)-1-(2,6-dichloro-3-fluorophenyl)-ethoxy]-furo[3,2-c]pyridin-6-ylamine] | < 0.5 | < 0.5
CCNC(=O)c1coc2c(O[C@H](C)c3c(Cl)ccc(F)c3Cl)c(N)ncc12 [Example 179, 6-Amino-7-[(R)-1-(2,6-dichloro-3-fluorophenyl)ethoxy]furo[3,2-c]pyridine-3-carboxylic acid ethylamide] | 5 to 20 | < 0.5
CC(Oc1c(N)ncc2c(-c3cnn(C4CCNCC4)c3)coc12)c1ccccc1OC(F)(F)F (stereo not shown) [Example 354, 3-(1-Piperidin-4-yl-1H-pyrazol-4-yl)-7-[1-(2-trifluoromethoxy-phenyl)ethoxy]furo[3,2-c]pyridin-6-ylamine] | 0.5 to 5 | 0.5 to 5
C[C@@H](Oc1c(N)ncc2c(C(=O)NC3CCNCC3)coc12)c1c(Cl)ccc(F)c1Cl [Example 182, 6-Amino-7-[(R)-1-(2,6-dichloro-3-fluorophenyl)ethoxy]furo[3,2-c]pyridine-3-carboxylic acid piperidin-4-ylamide] | 0.5 to 5 | < 0.5
C[C@@H](Oc1c(N)ncc2c(C3=CCN(C(=O)c4ccc[nH]4)CC3)coc12)c1c(Cl)ccc(F)c1Cl [Example 234, (4-{6-Amino-7-[(R)-1-(2,6-dichloro-3-fluorophenyl)ethoxy]-furo[3,2-c]pyridin-3-yl}-3,6-dihydro-2H-pyridin-1-yl)-(1H-pyrrol-2-yl)-methanone] | 0.5 to 5 | 0.5 to 5

Continued, values first:

IC50 (RON (human)) [µM] | IC50 (MET (human)) [µM] | Structure (SMILES)
< 0.5 | < 0.5 | CC(Oc1c(N)ncc2c(-c3cnn(C4CCNCC4)c3)coc12)c1c(Cl)c(F)cc(OC2CNC2)c1Cl (stereo not shown) [Example 159, 7-{1-[3-(Azetidin-3-yloxy)-2,6-dichloro-5-fluorophenyl]ethoxy}-3-[1-(piperidin-4-yl)-1H-pyrazol-4-yl]furo[3,2-c]pyridin-6-amine]
0.5 to 5 | 0.5 to 5 | COc1ccc(CC(C)Oc2c(N)ncc3c(-c4cnn(C5CCNCC5)c4)coc23)cc1 (stereo not shown) [Example 431, 7-[2-(4-Methoxyphenyl)-1-methylethoxy]-3-(1-piperidin-4-yl-1H-pyrazol-4-yl)furo[3,2-c]pyridin-6-ylamine]
0.5 to 5 | < 0.5 | C[C@@H](Oc1c(N)ncc2c(-c3ccc(CN(C)C)cc3)coc12)c1c(Cl)ccc(F)c1Cl [Example 105, 7-[(R)-1-(2,6-Dichloro-3-fluorophenyl)ethoxy]-3-(4-dimethylaminomethylphenyl)-furo[3,2-c]pyridin-6-ylamine]
0.5 to 5 | < 0.5 | C[C@@H](Oc1c(N)ncc2c(C3=CCN(C(=O)Oc4ccccc4)CC3)coc12)c1c(Cl)ccc(F)c1Cl [Example 55, 4-{6-Amino-7-[(R)-1-(2,6-dichloro-3-fluorophenyl)-ethoxy]-furo[3,2-c]pyridin-3-yl}-3,6-dihydro-2H-pyridine-1-carboxylic acid phenyl ester]
5 to 20 | < 0.5 | C[C@@H](Oc1c(N)ncc2c(C3=CCN(C(=O)[C@H](N)Cc4cnc[nH]4)CC3)coc12)c1c(Cl)ccc(F)c1Cl [Example 264, (2R)-2-Amino-1-[4-{6-amino-7-[(1R)-1-(2,6-dichloro-3-fluoro-phenyl)ethoxy]furo[3,2-c]pyridin-3-yl}-3,6-dihydropyridin-1(2H)-yl]-3-(1H-imidazol-5-yl)propan-1-one]
